According to paper PMC5342071, “A first generation inhibitor of human Greatwall kinase, enabled by structural and functional characterisation of a minimal kinase domain construct” (Oncotarget, 2016):

Legend:
[1] = biological target: T1, hGWL^FL (Homo sapiens, UniProt Q96GX5); assay: Immunoprecipitation kinase assay with Flag-tagged hGWL^FL (p-ENSA western); format: biochemical; conditions: for IC50: immunoprecipitated Flag-tagged hGWL^FL, read-out: IC50 GWL^FL
T1 construct: N-terminally FLAG-tagged full-length human GWL; made in house; host or cells: HEK293T cells, transfected and nocodazole-arrested; protein captured on anti-Flag M2 beads
T1 sequence (Q96GX5 1-879): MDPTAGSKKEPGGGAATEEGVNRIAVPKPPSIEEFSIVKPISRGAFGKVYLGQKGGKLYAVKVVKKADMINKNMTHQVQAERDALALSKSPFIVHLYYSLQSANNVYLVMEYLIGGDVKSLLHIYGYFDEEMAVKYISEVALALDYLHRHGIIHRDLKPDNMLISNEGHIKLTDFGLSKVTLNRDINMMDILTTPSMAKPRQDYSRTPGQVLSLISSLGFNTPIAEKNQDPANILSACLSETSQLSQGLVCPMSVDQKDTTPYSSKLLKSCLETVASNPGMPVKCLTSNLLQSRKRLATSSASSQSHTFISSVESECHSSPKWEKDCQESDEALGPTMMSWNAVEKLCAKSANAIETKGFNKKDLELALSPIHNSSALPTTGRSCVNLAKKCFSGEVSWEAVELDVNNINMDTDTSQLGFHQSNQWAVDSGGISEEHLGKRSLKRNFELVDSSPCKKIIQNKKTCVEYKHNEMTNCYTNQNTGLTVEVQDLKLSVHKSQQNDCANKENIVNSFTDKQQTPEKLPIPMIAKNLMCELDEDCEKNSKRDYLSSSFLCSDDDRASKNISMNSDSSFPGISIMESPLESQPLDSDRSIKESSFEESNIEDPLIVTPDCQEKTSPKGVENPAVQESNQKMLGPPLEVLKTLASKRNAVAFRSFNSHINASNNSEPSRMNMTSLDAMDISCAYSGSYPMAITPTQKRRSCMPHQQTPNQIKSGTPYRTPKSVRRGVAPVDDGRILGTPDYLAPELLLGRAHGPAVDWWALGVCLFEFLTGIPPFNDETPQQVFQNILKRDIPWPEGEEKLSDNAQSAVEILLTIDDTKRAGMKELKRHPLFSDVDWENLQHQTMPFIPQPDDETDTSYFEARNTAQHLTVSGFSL
Experimental: 500 mM NaCl, and 0.5 mM TCEP) diluted to desired concentration or immunoprecipitated hGWL on beads with ultra-pure ATP [Promega, 25 µM] and His-tagged substrate  α-endosulfine (ENSA, 2 µM) in kinase assay buffer (50 mM Tris-HCl pH 7.5, 0.5 mM EGTA, 150 mM NaCl, 0.1% v/v NP-40 and 15 mM MgCl2). The […]
(dithiothreitol), 50% v/v Glycerol, 10% v/v SDS (sodium dodecyl sulphate), and 0.25M Tris-HCl pH 6.8) or Kinase-Glo Max reagent [Promega]. Recombinant His-tagged ENSA was purified using Ni-NTA agarose [QIAGEN] from BL21 E. coli following the manufacturer’s recommended protocol. […]
(§1) All kinase assays were repeated thrice per assay condition and each point on the concentration-dependent response curves represents the mean ± […]
Immunoprecipitation Kinase Assay
HEK293T cells were transfected with 10 µg of plasmid (Flag-tagged hGWLFL or GFP; pcDNA3-EGFP, Addgene, Cambridge MA, USA) using CaCl2. […]
incubated for a further 16–18 h. Cells were collected and washed in PBS-A followed by lysis on ice for 20 min in 1mL IP buffer (50 mM Tris-HCl pH 7.5, 150 mM NaCl, 10% v/v glycerol, 0.5% v/v NP-40, 1 mM EDTA supplemented with protease and phosphatase inhibitors (Complete and PhosStop; Roche Diagnostics)). Samples were then sonicated and clarified by centrifugation at 13,000 rpm for 30 min at 4°C. To capture Flag-tagged […]
hGWLFL, 100 µl of lysate was diluted 5-fold with IP buffer and combined with 3 µl anti-Flag M2 magnetic Dynabeads [Sigma-Aldrich] overnight at 4 °C. After sequential washes with IP buffer, 1:1 mix of IP and kinase assay buffers and a final wash in kinase assay buffer, the beads were then used in the kinase assay. The reaction was stopped by adding SDS loading buffer and analysed by western blot: p-ENSA and GWL levels were detected using the anti-phospho(Ser67)-ENSA and anti-MASTL(GWL, Prestige) antibodies. Activity was measured as the p-ENSA/GWL ratio and % kinase activity was normalised to the DMSO control. All kinases assays were repeated thrice per assay condition and each point on the concentration-dependent response curves represents the mean ± 1 S.D. […]

[2] = biological target: T2, hGWL-KinDom (Homo sapiens, UniProt Q96GX5); assay: Kinase-Glo Max luminescence kinase assay with hGWL-KinDom; format: biochemical; conditions: Kinase-Glo Max assay; read-out: IC50 GWL-KinDom
T2 construct: that encoded amino acids (aa) 1-194 + ‘RTFC’ + 740-879 of hGWL; GST (rhinovirus 3C-protease cleavable) (N, cleaved yes); made in house; host or cells: E. coli Rosetta2(DE3)
T2 sequence (Q96GX5 with tags, fused parts or gaps limits assumed): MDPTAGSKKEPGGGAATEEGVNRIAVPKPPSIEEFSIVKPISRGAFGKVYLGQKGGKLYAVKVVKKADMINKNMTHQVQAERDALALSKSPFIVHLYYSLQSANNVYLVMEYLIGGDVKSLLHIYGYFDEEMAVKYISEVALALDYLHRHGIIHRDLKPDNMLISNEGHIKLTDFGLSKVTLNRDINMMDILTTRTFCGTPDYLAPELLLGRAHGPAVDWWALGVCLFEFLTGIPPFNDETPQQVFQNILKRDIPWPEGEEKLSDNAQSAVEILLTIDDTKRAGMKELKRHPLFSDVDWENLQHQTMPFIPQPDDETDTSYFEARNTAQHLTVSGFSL
Experimental: Non-radioactive kinase assays were set-up by combining hGWL-KinDom (305 µM in 20 mM HEPES pH 7.5, FL 500 mM NaCl, and 0.5 mM TCEP) diluted to desired concentration or immunoprecipitated hGWL on beads with ultra-pure ATP [Promega, 25 µM] and His-tagged substrate  α-endosulfine (ENSA, 2 µM) in kinase assay buffer (50 mM Tris-HCl pH 7.5, 0.5 mM EGTA, 150 mM NaCl, 0.1% v/v NP-40 and 15 mM MgCl2). The reaction was allowed to proceed for 30 min at 37 °C or another indicated time-point after which it was stopped with either SDS loading buffer (5X buffer, including 0.25 % w/v Bromophenol blue, 0.5 M DTT (dithiothreitol), 50% v/v Glycerol, 10% v/v SDS (sodium dodecyl sulphate), and 0.25M Tris-HCl pH 6.8) or Kinase-Glo Max reagent [Promega]. Recombinant His-tagged ENSA was purified using Ni-NTA agarose [QIAGEN] from BL21 E. coli following the manufacturer’s recommended protocol. […]
as §1
After stopping the above non-radioactive kinase assay with 1 volume of Kinase-Glo Max reagent the mixture was allowed to incubate for a further 15 min. To detect consumption of ATP, samples were transferred to white, flat-bottom 96-well plates [Thermo Fisher Scientific, Loughborough, UK] and luminescence was detected using a POLARstar Omega micro-plate reader [BMG Labtech GmbH, Ortenberg, Germany]. As this assay measures ATP, activity or ATP turnover was measured as the -ΔRLU. […]

inhibitory ratio (IC50 GWL^FL/IC50 GWL-KinDom) ([1]; for GKI-1: EC50 hGWL^FL vs IC50 hGWL-KinDom)	EC50 ([1]; immunoprecipitated hGWL^FL, read-out: EC50 GWL^FL) [µM]	IC50 [2] [µM]	IC50 [1] [µM]	SMILES
~ 2	4.9	2.5	–	Clc1ccc(Nc2cccc(-c3cn[nH]c3)c2)cc1 [GKI-1, N-(4-chlorophenyl)-3-(1H-pyrazol-4-yl)aniline]
–	–	109 ± 13.7	66	CN(C)CC#Cc1cccc(C(=O)c2cnn(-c3ccc(F)cc3)c2N)c1 [GRI-3]
–	–	3.22 ± 0.31	2.5	CCN(CC)Cc1ccc(Nc2nccc(-c3cnn4ncccc34)n2)cc1 [GRI-4]
